Source: patent publication US7939541B2, “Intermediates and a process employing the intermediates for the preparation of (3-trifluoromethylsulfonyl)-N-[4-methyl-3-(4-pyridin-3yl-pyrimidin-2ylamino)-phenyl]-benzamide” (Natco Pharma Limited, priority 2004, dated 2011)

Experiments:
K562 cells = assay: Nude mice implanted with K562 cells: spleenic enlargement, Crk expression, leukemia growth index; type: in vivo
Source text: Mice were sacrificed after a decrease in percent leukemia growth index (LGI) was observed and spleen harvested.
Control mice also developed random subcutaneous tumors showing Crk expression, indicative of the presence of K562 cells.

ZR71 breast cancer cells = assay: In vitro angiogenic assay, ZR-71 conditioned media on human dermal endothelial cells; type: cell-based; conditions: ZR-71 cells, radiation status not specified
Procedure: (§1) The in vitro angiogenesis of 4910, 5310 and U87 glioma cells and MDAMB231 and ZR71 breast cancer cells in the presence of specified concentrations of compounds were determined as follows, cells (2×10^4/well) were seeded in 8-well chamber slides and were treated with various concentrations of test compounds. After a 24 h incubation period, the conditioned media was removed and added to a 4×10^4 human dermal endothelial cell (monolayer in 8-well chamber slides) and the human dermal endothelial cells were allowed to grow for 72 h. Cells were then fixed in 3.7% formaldehyde and stained with H&E and photographed.

[1] = tested on: 4910 human glioma xenograft cells; assay: Glioma radiation studies, intracranial tumours; type: in vivo, nude mice
Procedure: Nude mice were intracranially implanted with 4910 human glioma xenograft cells (1×10^6 cells) intracranially. Ten days after implantation mice were treated with AN019, AN024 or temozolomide with or without radiation (5 Gy/week). The experiment was terminated at day 40 post implantation.

[2] = tested on: Baf3 murine leukemia cells E255K; assay: Blast cell count in nude mice implanted with Baf3 E255K cells; type: in vivo; conditions: Baf3E255K (printed E225K); Imatinib 10 mg/kg, AN019 20 mg/kg, AN024 20 mg/kg, oral gavage or ip from day 15; day 42
Source text: (§2) Blood smears were obtained via the tail vein or via the femoral vein every 6th day and blast cells counted and graphically represented.
(§3) Abdominal swelling and decrease in activity was monitored daily, blood smear taken via the tail vein or the femoral vein every 6th day and H&E stained as per standard protocols. 42 days after implantation, mice were sacrificed and spleens harvested.
(§4) Blood from tail vein or the femoral vein was taken every 6th day from Baf3 cell implanted mice until day 42.
(§5) Nude mice were intraperitoneally implanted with Baf3 mutant cells (wt, T315I, M351T or E255K). […] Blood was drawn from the femoral vein or tail vein every 6th day and blast cell count determined and graphically represented.

K562 = assay: ED50 and therapeutic index in leukemic mice (K562); type: in vivo; conditions: Mus musculus, K562, po, read-out: ED50 (po) Mice
[3] = tested on: MDAMB231 breast cancer cells; assay: In vitro angiogenic assay, MDA-MB-231 conditioned media on human dermal endothelial cells; type: cell-based; conditions: MDA-MB-231 cells, with radiation
Procedure: as §1

[4] = tested on: pAKT and pERK in glioma and breast cancer cells; assay: Western blot analysis of pAKT and pERK, cell line not stated; type: cell-based; conditions: both with and without radiation
Procedure: (§6) Western blot analysis of 4910, 5310 and U87 glioma cells and MDAMB231 and ZR71 breast cancer cells in the presence of specified concentrations of compounds were assessed as per standard protocols. Cells were treated with AN019, AN024 or Temozolomide at the specified concentrations. 24 h after treatment, cells were collected and cell lysates extracted. Equal quantities of proteins were fractionated by SDS-PAGE. The fractionated proteins were blotted on to nylon membranes and immunoprobed for AKT, ERK and Pi3k. Breast cancer cell protein isolates were additionally immunoprobed for EGFR, ErbB1, ErbB2 and ErbB3.

[5] = tested on: Baf3 murine leukemia cells M351T; assay: Blast cell count in nude mice implanted with Baf3 M351T cells; type: in vivo; conditions: Baf3M351T; Imatinib 10 mg/kg, AN019 20 mg/kg, AN024 20 mg/kg, oral gavage or ip from day 15; day 42
Source text: as §2, §3, §4, §5

[6] = tested on: AKT, ERK and Pi3k in ZR71 breast cancer cells; assay: Western blot analysis, ZR71; type: cell-based; conditions: 24 h
Procedure: as §6

[7] = tested on: BCR-Abl, Crk and phospho Stat5AY^694/699 in K562 cells; assay: Western blot analysis of K562 cells treated with AN024; type: cell-based, human
Procedure: Expression levels of BCR-Abl, Crk and phospho Stat5AY^694/699 were determined by western blot analysis in K562 cells treated with various concentrations of AN024 (1, 2.5, 5 or 10 μg/ml) for 12 h.
K562 cells were treated with 1, 2.5, 5, or 10 μg/ml of AN024. After 12 h, cells were collected and total cell lysates were prepared in extraction buffer containing Tris [0.1 M, pH 7.5], Triton-X114 (1.0%), EDTA (10 mM), aprotinin, and phenylmethylsulphonyl fluoride. […] The membranes were probed for 2 h with antibodies against BCR-Abl, Crk and phospho Stat5AY^694/699 per standard protocols. The membranes were subsequently washed three times with PBS to remove excess primary antibodies, incubated with appropriate HRP conjugated secondary antibodies as required, and then developed according to enhanced chemiluminesence protocol (Amersham, Arlington Heights, Ill.).
FIG. 1 illustrates results of this testing. K562 cells were treated with various concentrations of AN024 (1-10 μg/ml). Cell lysates were collected and western blot analysis was performed per standard protocols. Expression levels of BCR-Abl, Crk and Stat5AY^694/699 were determined.

[8] = tested on: AKT, ERK and Pi3k in U87 glioma cells; assay: Western blot analysis, U87; type: cell-based; conditions: 24 h
Procedure: as §6

5310 glioma cells = assay: In vitro angiogenic assay, 5310 conditioned media on human dermal endothelial cells; type: cell-based; conditions: 5310 cells
Procedure: as §1

[9] = tested on: K562 luc human leukemia cells; assay: Luciferase expression in nude mice implanted with K562 luc cells, low dose oral administration; type: in vivo
Source text: Five mice were used per group and divided into 24 groups+2 control. All groups were implanted with K562 normal/luc cells. Of the 24 groups, 12 were used for luciferase studies whereas the other 12 were used for blood smear count studies.

U87 glioma cells = assay: In vitro angiogenic assay, U87 conditioned media on human dermal endothelial cells; type: cell-based; conditions: with radiation
Procedure: as §1

[10] = tested on: K562 luciferase expressing cells; assay: Leukemic survival study; type: in vivo, nude mice
Source text: K562 luciferase expressing cells were implanted intraperitoneally into nude mice; the mice were scanned using the xenogeny IVIS image station after ip injections of luciferin does determine implantations. Drug treatment was started as in previous studies day 15 after implantation. The animals were given treatment till day 42, after which drug treatment was stopped and survival of the animals determined as per the animal care regulations. […] Drug treatment was withdrawn on day 42 post implantation and survival of animals determined.

Cc1ccc(NC(=O)c2cccc(S(=O)(=O)C(F)(F)F)c2)cc1Nc1nccc(-c2cccnc2)n1 [AN024, (3-trifluoromethylsulfonyl)-N-[4-methyl-3-(4-pyridin-3yl-pyrimidin-2ylamino)-phenyl]-benzamide]
leukemia growth index (LGI) (K562 cells; K562 implanted nude mice): caused the regression of LGI | Crk expression in paraffin sections of spleen (K562 cells; immuno-probed spleen sections): only basal level expression of Crk expression comparable to negative control | Spleenic enlargement (K562 cells; ip injections, visual inspection of harvested spleen): did not show any spleenic enlargement | physiological, phenotypic or behavioral abnormality (K562 cells; treated K562 implanted nude mice): no abnormal physiological, phenotypic or behavioral abnormality | inhibition of angiogenesis (ZR71 breast cancer cells): complete inhibition of angiogenesis | intracranial tumours (size, appearance) ([1]; with radiation (5 Gy/week)): well defined surgically respectable tumours | intracranial tumours (size, appearance) ([1]; without radiation): well defined and not showing diffuse edges | blast cell count in blood smears [2]: significant decrease in blast cell count | ED50 (K562): 10 mg/kg | inhibition of angiogenesis [3]: only a slight inhibition | pERK levels [4]: reduction on pERK levels but to a lesser extent than AN019 | blast cell count in blood smears [5]: significant decrease in blast cell count | AKT levels ([6]; ZR71, after radiation): decrease in AKT expression | PI3k levels ([6]; ZR71, with radiation): decrease in PI3k levels | AKT levels ([6]; ZR71, without radiation): did not show any significant change | BCR-Abl, Crk and phospho Stat5AY^694/699 protein levels ([7]; K562 cells, 1, 2.5, 5 or 10 μg/ml, 12 h, western blot): decreased in a dose dependent manner | BCR-Abl kinase activity ([7]; K562 cells, 1-10 μg/ml): inhibited BCR-Abl kinase activity in a dose dependent manner | ERK levels ([8]; U87, after radiation): decrease was enhanced after radiation | ERK levels ([8]; U87, without radiation): slight decrease in ERK levels | inhibition of angiogenesis (5310 glioma cells; after radiation treatment): angiogenesis further inhibited | inhibition of angiogenesis (5310 glioma cells; control conditions (without radiation)): inhibition of angiogenesis was seen | luciferase expression ([9]; 1 mg/kg): did not induce a decrease in luciferase expression | luciferase expression ([9]; 5 mg/kg): caused a decrease in luciferase expression | luciferase expression ([9]; 10 mg/kg): caused a decrease in luciferase expression | luciferase expression ([9]; 20 mg/kg): caused a decrease in luciferase expression | inhibition of angiogenesis (U87 glioma cells): increase in inhibition after radiation | blast cell count from blood smears after withdrawal of drug treatment ([10]; drug treatment withdrawn on day 42 (FIG. 6C)): showed effectiveness after withdrawal of drug treatment | animals showing no signs of leukemia / complete absence of leukemic symptoms ([10]; of 10 animals, treatment day 15 to day 42, then withdrawn, AN024 read on day 55): 8 animals | mortality (day post implantation) ([10]; treatment day 15 to day 42, then withdrawn): 38 days
